In the kinase profiling compilation of Christmann-Franck et al. (2016):

Legend:
Assay in all cases: radiometric filter-binding kinase assay, Kinase HotSpot
Conditions in all cases: compound 0.5 µM; ATP 10 µM
MAPK14 (human) = MAPK14 (human) (UniProt Q16539)
BTK (human) = BTK (human) (UniProt Q06187)
TGFBR1 (human) = TGFBR1 (human) (UniProt P36897)
AKT1 (human) = AKT1 (human) (UniProt P31749)
ACVR1B (human) = ACVR1B (human) (UniProt P36896)
CSNK2A1 (human) = CSNK2A1 (human) (UniProt P68400)
MARK4 (human) = MARK4 (human) (UniProt Q96L34)
PRKACA (human) = PRKACA (human) (UniProt P17612)
RAF1 (human) = RAF1 (human) (UniProt P04049)
MARK3 (human) = MARK3 (human) (UniProt P27448)
EPHB2 (human) = EPHB2 (human) (UniProt P29323)
FGFR3 (human) = FGFR3 (human) (UniProt P22607)
Chain of FGFR3 (human) (P22607 whole entry, looked up): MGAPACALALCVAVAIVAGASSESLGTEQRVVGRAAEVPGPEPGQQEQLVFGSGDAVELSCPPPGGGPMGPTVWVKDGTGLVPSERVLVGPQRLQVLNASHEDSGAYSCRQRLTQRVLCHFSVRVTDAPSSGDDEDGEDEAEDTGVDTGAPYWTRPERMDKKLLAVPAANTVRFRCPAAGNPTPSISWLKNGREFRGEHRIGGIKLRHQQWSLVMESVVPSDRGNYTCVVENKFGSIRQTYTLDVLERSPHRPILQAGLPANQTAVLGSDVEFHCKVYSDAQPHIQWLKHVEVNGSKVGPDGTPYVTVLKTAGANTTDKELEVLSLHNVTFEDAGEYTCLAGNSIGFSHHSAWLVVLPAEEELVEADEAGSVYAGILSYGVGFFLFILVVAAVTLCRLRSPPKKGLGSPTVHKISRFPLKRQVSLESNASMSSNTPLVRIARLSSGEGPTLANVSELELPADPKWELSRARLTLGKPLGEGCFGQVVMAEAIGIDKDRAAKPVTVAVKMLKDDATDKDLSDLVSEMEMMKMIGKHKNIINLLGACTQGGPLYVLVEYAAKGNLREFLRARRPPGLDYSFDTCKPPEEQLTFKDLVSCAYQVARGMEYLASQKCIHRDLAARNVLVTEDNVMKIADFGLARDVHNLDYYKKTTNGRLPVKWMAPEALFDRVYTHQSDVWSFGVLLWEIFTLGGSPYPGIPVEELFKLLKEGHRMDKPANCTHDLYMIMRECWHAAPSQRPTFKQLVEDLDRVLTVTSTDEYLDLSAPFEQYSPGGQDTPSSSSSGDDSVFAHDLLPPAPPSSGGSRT

PTK2B (human) = PTK2B (human) (UniProt Q14289)
CSNK1G3 (human) = CSNK1G3 (human) (UniProt Q9Y6M4)
SLK (human) = SLK (human) (UniProt Q9H2G2)
TSSK2 (human) = TSSK2 (human) (UniProt Q96PF2)
Chain of TSSK2 (human) (Q96PF2 whole entry, looked up): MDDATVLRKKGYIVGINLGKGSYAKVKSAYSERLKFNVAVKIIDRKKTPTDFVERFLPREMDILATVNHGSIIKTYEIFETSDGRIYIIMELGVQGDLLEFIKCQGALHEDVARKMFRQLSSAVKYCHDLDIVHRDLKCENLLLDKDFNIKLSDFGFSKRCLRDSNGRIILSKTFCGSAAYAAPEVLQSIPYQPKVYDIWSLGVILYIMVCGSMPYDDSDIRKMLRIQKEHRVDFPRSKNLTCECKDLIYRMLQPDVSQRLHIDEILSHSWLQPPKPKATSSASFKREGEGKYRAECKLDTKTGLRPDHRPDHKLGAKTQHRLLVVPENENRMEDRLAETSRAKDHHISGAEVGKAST

GSK3A (human) = GSK3A (human) (UniProt P49840)
[1] = target: TYK2 JH1 catalytic (human) (UniProt P29597)
PAK6 (human) = PAK6 (human) (UniProt Q9NQU5)
Chain of PAK6 (human) (Q9NQU5 whole entry, looked up): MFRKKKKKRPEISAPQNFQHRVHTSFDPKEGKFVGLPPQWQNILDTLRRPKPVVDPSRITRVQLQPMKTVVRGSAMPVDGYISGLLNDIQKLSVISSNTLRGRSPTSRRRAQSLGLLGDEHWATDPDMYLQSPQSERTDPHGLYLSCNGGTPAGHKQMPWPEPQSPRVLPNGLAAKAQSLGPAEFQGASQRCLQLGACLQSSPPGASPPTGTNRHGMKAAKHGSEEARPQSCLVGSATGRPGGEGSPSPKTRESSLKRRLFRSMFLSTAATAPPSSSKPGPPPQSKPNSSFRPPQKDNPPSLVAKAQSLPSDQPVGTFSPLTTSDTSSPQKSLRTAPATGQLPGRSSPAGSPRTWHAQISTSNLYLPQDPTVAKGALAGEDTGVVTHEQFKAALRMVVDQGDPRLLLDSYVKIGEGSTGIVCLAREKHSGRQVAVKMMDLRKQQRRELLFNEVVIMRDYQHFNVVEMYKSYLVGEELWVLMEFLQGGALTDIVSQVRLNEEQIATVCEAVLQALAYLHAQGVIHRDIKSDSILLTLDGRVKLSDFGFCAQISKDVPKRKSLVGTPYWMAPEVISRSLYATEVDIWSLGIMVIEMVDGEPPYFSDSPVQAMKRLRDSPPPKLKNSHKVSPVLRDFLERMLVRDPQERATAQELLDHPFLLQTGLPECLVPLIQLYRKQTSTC

AXL (human) = AXL (human) (UniProt P30530)
ROCK2 (human) = ROCK2 (human) (UniProt O75116)
NEK4 (human) = NEK4 (human) (UniProt P51957)
SYK (human) = SYK (human) (UniProt P43405)
[2] = target: JAK1 JH1 catalytic (human) (UniProt P23458)
MAPK12 (human) = MAPK12 (human) (UniProt P53778)
Chain of MAPK12 (human) (P53778 whole entry, looked up): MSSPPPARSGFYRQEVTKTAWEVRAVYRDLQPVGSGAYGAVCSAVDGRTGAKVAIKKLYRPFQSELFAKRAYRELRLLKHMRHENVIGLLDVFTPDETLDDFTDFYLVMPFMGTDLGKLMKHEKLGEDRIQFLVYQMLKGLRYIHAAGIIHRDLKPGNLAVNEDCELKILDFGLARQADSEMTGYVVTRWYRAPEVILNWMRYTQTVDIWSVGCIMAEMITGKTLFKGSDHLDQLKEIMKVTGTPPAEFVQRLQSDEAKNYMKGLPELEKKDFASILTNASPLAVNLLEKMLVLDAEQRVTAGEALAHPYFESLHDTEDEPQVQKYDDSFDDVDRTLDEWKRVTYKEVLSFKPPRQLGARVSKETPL

TEC (human) = TEC (human) (UniProt P42680)
Chain of TEC (human) (P42680 whole entry, looked up): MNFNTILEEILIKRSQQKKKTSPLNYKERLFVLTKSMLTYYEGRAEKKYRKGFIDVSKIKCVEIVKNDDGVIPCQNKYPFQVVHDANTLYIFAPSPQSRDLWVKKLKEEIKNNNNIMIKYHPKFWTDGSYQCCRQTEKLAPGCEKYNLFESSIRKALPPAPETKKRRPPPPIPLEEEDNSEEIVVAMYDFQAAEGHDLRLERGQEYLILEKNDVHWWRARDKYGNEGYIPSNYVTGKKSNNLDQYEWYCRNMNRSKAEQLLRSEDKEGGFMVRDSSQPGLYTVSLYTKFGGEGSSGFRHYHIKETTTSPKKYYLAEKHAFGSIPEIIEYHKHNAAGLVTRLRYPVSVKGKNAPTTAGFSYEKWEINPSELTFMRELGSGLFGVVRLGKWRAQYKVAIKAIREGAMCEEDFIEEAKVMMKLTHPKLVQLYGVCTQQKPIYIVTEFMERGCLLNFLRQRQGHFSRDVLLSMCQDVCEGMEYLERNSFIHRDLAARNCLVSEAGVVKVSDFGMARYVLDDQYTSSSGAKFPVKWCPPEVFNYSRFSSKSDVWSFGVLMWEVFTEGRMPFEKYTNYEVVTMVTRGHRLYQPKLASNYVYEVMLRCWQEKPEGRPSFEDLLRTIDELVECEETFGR

MYLK (human) = MYLK (human) (UniProt Q15746)
PLK2 (human) = PLK2 (human) (UniProt Q9NYY3)
STK17A (human) = STK17A (human) (UniProt Q9UEE5)
AURKA (human) = AURKA (human) (UniProt O14965)
CDC42BPA (human) = CDC42BPA (human) (UniProt Q5VT25)
STK24 (human) = STK24 (human) (UniProt Q9Y6E0)
Chain of STK24 (human) (Q9Y6E0 whole entry, looked up): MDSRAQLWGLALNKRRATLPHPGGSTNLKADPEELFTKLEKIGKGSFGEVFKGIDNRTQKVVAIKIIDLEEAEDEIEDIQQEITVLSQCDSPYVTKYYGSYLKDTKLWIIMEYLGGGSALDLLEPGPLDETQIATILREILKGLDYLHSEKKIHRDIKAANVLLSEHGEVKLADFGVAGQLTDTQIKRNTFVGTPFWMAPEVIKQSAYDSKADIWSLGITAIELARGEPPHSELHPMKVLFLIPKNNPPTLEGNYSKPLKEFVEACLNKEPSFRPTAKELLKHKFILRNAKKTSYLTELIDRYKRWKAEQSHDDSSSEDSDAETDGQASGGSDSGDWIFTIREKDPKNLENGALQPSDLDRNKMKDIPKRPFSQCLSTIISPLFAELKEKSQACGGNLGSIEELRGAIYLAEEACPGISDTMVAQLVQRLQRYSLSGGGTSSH

EPHA5 (human) = EPHA5 (human) (UniProt P54756)
PRKD2 (human) = PRKD2 (human) (UniProt Q9BZL6)
Chain of PRKD2 (human) (Q9BZL6 whole entry, looked up): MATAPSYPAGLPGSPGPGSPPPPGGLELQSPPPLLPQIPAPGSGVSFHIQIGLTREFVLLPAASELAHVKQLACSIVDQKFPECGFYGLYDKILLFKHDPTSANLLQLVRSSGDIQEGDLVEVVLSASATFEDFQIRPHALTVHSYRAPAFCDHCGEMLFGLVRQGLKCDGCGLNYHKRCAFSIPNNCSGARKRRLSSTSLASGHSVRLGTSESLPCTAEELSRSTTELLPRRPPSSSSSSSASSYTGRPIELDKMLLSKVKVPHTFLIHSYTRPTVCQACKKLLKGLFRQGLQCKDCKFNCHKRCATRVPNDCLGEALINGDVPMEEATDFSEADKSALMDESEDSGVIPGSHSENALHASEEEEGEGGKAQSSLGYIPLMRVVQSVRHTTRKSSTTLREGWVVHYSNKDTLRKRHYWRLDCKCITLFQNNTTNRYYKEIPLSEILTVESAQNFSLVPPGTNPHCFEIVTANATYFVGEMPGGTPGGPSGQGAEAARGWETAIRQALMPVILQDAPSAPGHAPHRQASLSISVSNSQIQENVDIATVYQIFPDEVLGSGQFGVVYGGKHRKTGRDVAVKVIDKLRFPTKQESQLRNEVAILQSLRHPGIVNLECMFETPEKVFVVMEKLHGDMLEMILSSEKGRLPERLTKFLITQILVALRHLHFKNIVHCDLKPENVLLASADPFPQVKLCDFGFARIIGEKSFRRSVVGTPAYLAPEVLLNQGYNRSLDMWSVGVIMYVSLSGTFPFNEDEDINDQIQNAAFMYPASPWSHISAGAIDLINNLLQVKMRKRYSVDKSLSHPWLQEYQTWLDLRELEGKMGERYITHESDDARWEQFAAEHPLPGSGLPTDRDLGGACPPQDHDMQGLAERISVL

RIPK2 (human) = RIPK2 (human) (UniProt O43353)
SRC (human) = SRC (human) (UniProt P12931)
CSNK1A1 (human) = CSNK1A1 (human) (UniProt P48729)
CDK9 CCNT1 (human) = CDK9 CCNT1 (human) (UniProt P50750+O60563)
MAP4K2 (human) = MAP4K2 (human) (UniProt Q12851)
CAMKK2 (human) = CAMKK2 (human) (UniProt Q96RR4)
ZAP70 (human) = ZAP70 (human) (UniProt P43403)
MAP3K3 (human) = MAP3K3 (human) (UniProt Q99759)

Chain of CSNK2A1 (human) (P68400 whole entry, looked up): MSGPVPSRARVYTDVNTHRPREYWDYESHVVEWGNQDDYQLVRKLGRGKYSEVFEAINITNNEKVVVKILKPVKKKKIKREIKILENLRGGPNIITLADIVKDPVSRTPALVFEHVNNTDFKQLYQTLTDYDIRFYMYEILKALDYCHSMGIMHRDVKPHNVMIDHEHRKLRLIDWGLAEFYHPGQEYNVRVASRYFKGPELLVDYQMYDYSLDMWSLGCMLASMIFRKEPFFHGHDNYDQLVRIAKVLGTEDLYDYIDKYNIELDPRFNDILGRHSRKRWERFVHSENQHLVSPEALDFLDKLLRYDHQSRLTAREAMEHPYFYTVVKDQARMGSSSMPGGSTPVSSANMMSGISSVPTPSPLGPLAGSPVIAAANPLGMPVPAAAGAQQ
Chain of MAPK14 (human) (Q16539 whole entry, looked up): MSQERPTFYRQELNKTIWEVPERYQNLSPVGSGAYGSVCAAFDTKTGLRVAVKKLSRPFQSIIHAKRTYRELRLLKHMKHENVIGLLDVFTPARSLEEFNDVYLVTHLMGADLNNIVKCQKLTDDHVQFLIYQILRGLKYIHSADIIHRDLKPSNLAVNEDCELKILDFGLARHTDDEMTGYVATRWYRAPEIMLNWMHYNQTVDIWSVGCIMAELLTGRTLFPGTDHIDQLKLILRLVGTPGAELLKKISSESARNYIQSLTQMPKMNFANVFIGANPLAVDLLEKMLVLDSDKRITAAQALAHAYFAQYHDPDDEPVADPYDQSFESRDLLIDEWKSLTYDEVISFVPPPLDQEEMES

Q: How did the residual activity (MAPK14 (human)) turn out when `Cc1nc(-c2ccccc2)c(-c2ccncc2)o1` was run?
A: 76.3%

Q: What about the residual activity (BTK (human)) of the same molecule?
A: 98.3%

Q: What about the residual activity (TGFBR1 (human)) of the same molecule?
A: 102%

Q: What about the residual activity (AKT1 (human)) of the same molecule?
A: 102%

Q: And the residual activity (ACVR1B (human))?
A: 99.3%

Q: What about the residual activity (CSNK2A1 (human)) of the same molecule?
A: 109%

Q: What about the residual activity (MARK4 (human)) of the same molecule?
A: 103%

Q: What about the residual activity (PRKACA (human)) of the same molecule?
A: 98.9%

Q: What about the residual activity (RAF1 (human)) of the same molecule?
A: 92.6%

Q: What about the residual activity (MARK3 (human)) of the same molecule?
A: 107%

Q: What about the residual activity (EPHB2 (human)) of the same molecule?
A: 99.8%

Q: And the residual activity (FGFR3 (human))?
A: 95.6%

Q: What about the residual activity (PTK2B (human)) of the same molecule?
A: 100%

Q: And the residual activity (CSNK1G3 (human))?
A: 104%

Q: And the residual activity (SLK (human))?
A: 101%

Q: What about the residual activity (TSSK2 (human)) of the same molecule?
A: 90.1%

Q: And the residual activity (GSK3A (human))?
A: 112%

Q: What about the residual activity [1] of the same molecule?
A: 109%

Q: And the residual activity (PAK6 (human))?
A: 103%

Q: What about the residual activity (AXL (human)) of the same molecule?
A: 91.1%

Q: And the residual activity (ROCK2 (human))?
A: 97.6%

Q: And the residual activity (NEK4 (human))?
A: 100%

Q: What about the residual activity (SYK (human)) of the same molecule?
A: 99.1%

Q: What about the residual activity [2] of the same molecule?
A: 103%

Q: And the residual activity (MAPK12 (human))?
A: 105%

Q: And the residual activity (TEC (human))?
A: 127%

Q: And the residual activity (MYLK (human))?
A: 101%

Q: And the residual activity (PLK2 (human))?
A: 106%

Q: And the residual activity (STK17A (human))?
A: 99.5%

Q: What about the residual activity (AURKA (human)) of the same molecule?
A: 91.2%

Q: And the residual activity (CDC42BPA (human))?
A: 91.9%

Q: And the residual activity (STK24 (human))?
A: 96.7%

Q: And the residual activity (EPHA5 (human))?
A: 91.4%

Q: What about the residual activity (PRKD2 (human)) of the same molecule?
A: 97.7%

Q: And the residual activity (RIPK2 (human))?
A: 87.4%

Q: And the residual activity (SRC (human))?
A: 96.2%

Q: What about the residual activity (CSNK1A1 (human)) of the same molecule?
A: 86.4%

Q: What about the residual activity (CDK9 CCNT1 (human)) of the same molecule?
A: 84.6%

Q: What about the residual activity (MAP4K2 (human)) of the same molecule?
A: 106%

Q: What about the residual activity (CAMKK2 (human)) of the same molecule?
A: 105%

Q: What about the residual activity (ZAP70 (human)) of the same molecule?
A: 98.8%

Q: What about the residual activity (MAP3K3 (human)) of the same molecule?
A: 101%

Q: `Ic1cccc(CSc2nnc(-c3ccncc3)o2)c1` was tested. Which residual activity (MAPK14 (human)) did it give?
A: 99.3%

Q: What about the residual activity (BTK (human)) of the same molecule?
A: 95.6%

Q: What about the residual activity (TGFBR1 (human)) of the same molecule?
A: 94.4%

Q: What about the residual activity (AKT1 (human)) of the same molecule?
A: 98.6%

Q: And the residual activity (ACVR1B (human))?
A: 102%

Q: And the residual activity (CSNK2A1 (human))?
A: 97.3%

Q: And the residual activity (MARK4 (human))?
A: 86.8%

Q: What about the residual activity (PRKACA (human)) of the same molecule?
A: 94.6%

Q: And the residual activity (RAF1 (human))?
A: 92.8%

Q: And the residual activity (MARK3 (human))?
A: 124%

Q: And the residual activity (EPHB2 (human))?
A: 87.7%

Q: What about the residual activity (FGFR3 (human)) of the same molecule?
A: 106%

Q: And the residual activity (PTK2B (human))?
A: 92.1%

Q: What about the residual activity (CSNK1G3 (human)) of the same molecule?
A: 75.9%

Q: And the residual activity (SLK (human))?
A: 98.6%

Q: And the residual activity (TSSK2 (human))?
A: 110%

Q: And the residual activity (GSK3A (human))?
A: 42.7%

Q: What about the residual activity [1] of the same molecule?
A: 105%

Q: What about the residual activity (PAK6 (human)) of the same molecule?
A: 74%

Q: And the residual activity (AXL (human))?
A: 99.2%

Q: And the residual activity (ROCK2 (human))?
A: 89%

Q: What about the residual activity (NEK4 (human)) of the same molecule?
A: 93.7%

Q: What about the residual activity (SYK (human)) of the same molecule?
A: 92.2%

Q: What about the residual activity [2] of the same molecule?
A: 103%

Q: What about the residual activity (MAPK12 (human)) of the same molecule?
A: 93%

Q: And the residual activity (TEC (human))?
A: 106%

Q: What about the residual activity (MYLK (human)) of the same molecule?
A: 99.1%

Q: What about the residual activity (PLK2 (human)) of the same molecule?
A: 101%

Q: And the residual activity (STK17A (human))?
A: 95.8%

Q: And the residual activity (AURKA (human))?
A: 95.8%

Q: And the residual activity (CDC42BPA (human))?
A: 98.4%

Q: What about the residual activity (STK24 (human)) of the same molecule?
A: 108%

Q: And the residual activity (EPHA5 (human))?
A: 100%

Q: What about the residual activity (PRKD2 (human)) of the same molecule?
A: 97.1%

Q: And the residual activity (RIPK2 (human))?
A: 86.3%

Q: And the residual activity (SRC (human))?
A: 101%

Q: What about the residual activity (CSNK1A1 (human)) of the same molecule?
A: 97%

Q: And the residual activity (CDK9 CCNT1 (human))?
A: 109%

Q: What about the residual activity (MAP4K2 (human)) of the same molecule?
A: 112%

Q: What about the residual activity (CAMKK2 (human)) of the same molecule?
A: 85.1%

Q: What about the residual activity (ZAP70 (human)) of the same molecule?
A: 107%

Q: And the residual activity (MAP3K3 (human))?
A: 89.6%
